{"source": "paper PMC10378394", "about": "(Current Issues in Molecular Biology, 2023)", "key": {"Flt3(h)": {"biological_target": "Flt3(h) (Homo sapiens, UniProt P36888)", "assay": "Eurofins kinase assay"}, "[1]": {"biological_target": "PI3Kinase(p110a(H1047R)/p85a)(m) (Mus musculus, UniProt P42337, H1047R)", "assay": "Eurofins kinase assay"}, "CHK1(h)": {"biological_target": "CHK1(h) (Homo sapiens, UniProt O14757)", "assay": "Eurofins kinase assay"}, "PKCβII(h)": {"biological_target": "PKCβII(h) (Homo sapiens, UniProt P05771)", "assay": "Eurofins kinase assay"}, "Bmx(h)": {"biological_target": "Bmx(h) (Homo sapiens, UniProt P51813)", "assay": "Eurofins kinase assay"}, "Syk(h)": {"biological_target": "Syk(h) (Homo sapiens, UniProt P43405)", "assay": "Eurofins kinase assay"}, "ATR/ATRIP(h)": {"biological_target": "ATR/ATRIP(h) (Homo sapiens, UniProt Q13535)", "assay": "Eurofins kinase assay"}, "NEK2(h)": {"biological_target": "NEK2(h) (Homo sapiens, UniProt P51955)", "assay": "Eurofins kinase assay"}, "ATM(h)": {"biological_target": "ATM(h) (Homo sapiens, UniProt Q13315)", "assay": "Eurofins kinase assay"}, "Fyn(h)": {"biological_target": "Fyn(h) (Homo sapiens, UniProt P06241)", "sequence (P06241 whole entry)": "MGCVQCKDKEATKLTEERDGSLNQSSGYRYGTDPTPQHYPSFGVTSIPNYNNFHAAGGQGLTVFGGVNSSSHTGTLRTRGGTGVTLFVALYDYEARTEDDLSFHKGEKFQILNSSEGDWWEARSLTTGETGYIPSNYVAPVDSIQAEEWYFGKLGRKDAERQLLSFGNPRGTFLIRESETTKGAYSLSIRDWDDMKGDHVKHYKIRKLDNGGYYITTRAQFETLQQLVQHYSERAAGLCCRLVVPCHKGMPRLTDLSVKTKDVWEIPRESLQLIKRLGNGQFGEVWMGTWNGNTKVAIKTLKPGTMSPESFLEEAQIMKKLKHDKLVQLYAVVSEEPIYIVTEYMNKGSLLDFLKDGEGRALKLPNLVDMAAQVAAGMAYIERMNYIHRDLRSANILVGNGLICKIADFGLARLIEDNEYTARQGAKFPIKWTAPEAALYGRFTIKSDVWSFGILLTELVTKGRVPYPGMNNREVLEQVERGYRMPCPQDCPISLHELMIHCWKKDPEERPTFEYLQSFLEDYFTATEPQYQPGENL", "assay": "Eurofins kinase assay"}, "PKCμ(h)": {"biological_target": "PKCμ(h) (Homo sapiens, UniProt Q15139)", "assay": "Eurofins kinase assay"}, "[2]": {"test_system": "HCT116 (KRAS G13D) xenograft", "assay": "In vivo efficacy, xenograft", "design": "species or system BALB/c nude mice", "details": "16 days", "experimental": "(§1) Human-derived colorectal cancer cell lines, LS513, HCT-116, and HT29, were subcutaneously transplanted into 6-week-old female BALB/c nude mice to establish tumor models. Additionally, the mouse cancer cell line MC38 was subcutaneously transplanted into 6-week-old female and C57BL/6 mice to induce tumor formation. […]. The treatments were administered orally once daily for 2 weeks based on the growth rate observed in the vehicle group. Tumor volume was evaluated three times a week using the formula Tumor volume (TV) = (tumor short diameter ^2 × tumor long diameter)/2. The body weight of the mice was measured three times a week to assess potential toxicity in vivo. […]"}, "[3]": {"test_system": "LS513 (KRAS G12D) xenograft", "assay": "In vivo efficacy, xenograft", "design": "species or system BALB/c nude mice", "details": "day 17", "experimental": "as §1"}, "[4]": {"test_system": "HT29 (BRAF V600E) xenograft", "assay": "In vivo efficacy, xenograft", "design": "species or system BALB/c nude mice", "experimental": "as §1"}, "CDK2/cyclinE(h)": {"biological_target": "CDK2/cyclinE(h) (Homo sapiens, UniProt P24941)", "assay": "Eurofins kinase assay"}, "PKBβ(h)": {"biological_target": "PKBβ(h) (Homo sapiens, UniProt P31751)", "assay": "Eurofins kinase assay"}, "PRK2(h)": {"biological_target": "PRK2(h) (Homo sapiens, UniProt Q16513)", "sequence (Q16513 whole entry)": "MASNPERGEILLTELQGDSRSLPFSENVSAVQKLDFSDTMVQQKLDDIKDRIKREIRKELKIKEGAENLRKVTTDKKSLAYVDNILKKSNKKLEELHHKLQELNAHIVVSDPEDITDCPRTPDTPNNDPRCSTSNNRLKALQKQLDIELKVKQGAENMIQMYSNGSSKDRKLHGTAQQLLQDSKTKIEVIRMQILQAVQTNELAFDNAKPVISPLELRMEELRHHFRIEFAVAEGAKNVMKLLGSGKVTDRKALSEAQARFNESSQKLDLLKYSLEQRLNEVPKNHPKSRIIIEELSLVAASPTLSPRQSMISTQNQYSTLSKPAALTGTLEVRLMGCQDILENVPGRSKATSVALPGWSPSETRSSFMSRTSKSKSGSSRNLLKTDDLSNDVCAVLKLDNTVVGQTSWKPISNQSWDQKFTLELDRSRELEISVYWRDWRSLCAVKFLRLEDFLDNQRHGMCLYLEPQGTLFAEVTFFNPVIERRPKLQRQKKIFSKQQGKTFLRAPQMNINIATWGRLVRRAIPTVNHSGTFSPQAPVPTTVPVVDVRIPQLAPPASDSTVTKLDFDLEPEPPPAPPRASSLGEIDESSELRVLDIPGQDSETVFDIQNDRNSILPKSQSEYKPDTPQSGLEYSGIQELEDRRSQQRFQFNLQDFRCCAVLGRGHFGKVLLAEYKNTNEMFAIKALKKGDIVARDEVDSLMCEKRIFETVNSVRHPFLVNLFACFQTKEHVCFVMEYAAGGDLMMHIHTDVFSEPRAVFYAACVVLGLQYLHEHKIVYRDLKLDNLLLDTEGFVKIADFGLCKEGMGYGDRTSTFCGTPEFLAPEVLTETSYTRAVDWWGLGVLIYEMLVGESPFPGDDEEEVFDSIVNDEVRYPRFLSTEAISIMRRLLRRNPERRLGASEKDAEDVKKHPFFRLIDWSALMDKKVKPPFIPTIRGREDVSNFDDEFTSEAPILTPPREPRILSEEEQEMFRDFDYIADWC", "assay": "Eurofins kinase assay"}, "PKCε(h)": {"biological_target": "PKCε(h) (Homo sapiens, UniProt Q02156)", "sequence (Q02156 whole entry)": "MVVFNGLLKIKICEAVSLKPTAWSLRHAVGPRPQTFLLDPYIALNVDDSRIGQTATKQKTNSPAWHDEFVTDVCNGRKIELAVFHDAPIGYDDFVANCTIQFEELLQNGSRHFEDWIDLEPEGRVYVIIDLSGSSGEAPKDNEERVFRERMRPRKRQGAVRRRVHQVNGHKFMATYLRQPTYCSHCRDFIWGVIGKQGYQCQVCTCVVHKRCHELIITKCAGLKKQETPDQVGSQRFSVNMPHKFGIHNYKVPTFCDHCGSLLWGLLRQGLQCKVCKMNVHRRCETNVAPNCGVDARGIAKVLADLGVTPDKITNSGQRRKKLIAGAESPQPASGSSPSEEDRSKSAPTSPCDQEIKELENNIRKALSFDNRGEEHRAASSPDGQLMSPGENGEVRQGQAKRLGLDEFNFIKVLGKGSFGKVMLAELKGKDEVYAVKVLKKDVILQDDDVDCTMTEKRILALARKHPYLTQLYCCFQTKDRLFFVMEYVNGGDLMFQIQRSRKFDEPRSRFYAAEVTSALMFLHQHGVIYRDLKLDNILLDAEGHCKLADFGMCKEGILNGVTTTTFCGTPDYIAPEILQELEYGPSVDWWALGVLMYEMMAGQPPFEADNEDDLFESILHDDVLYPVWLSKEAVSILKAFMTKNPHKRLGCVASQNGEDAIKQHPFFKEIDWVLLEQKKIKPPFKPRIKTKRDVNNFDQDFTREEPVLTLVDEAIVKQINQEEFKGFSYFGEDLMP", "assay": "Eurofins kinase assay"}, "[5]": {"assay": "2-week repeated oral DRF study", "type": "in vivo", "details": "500 mg/kg oral"}, "PAK2(h)": {"biological_target": "PAK2(h) (Homo sapiens, UniProt Q13177)", "assay": "Eurofins kinase assay"}, "IL-10": {"test_system": "IL-10", "assay": "Western blot of IL-10", "type": "in vivo, mouse", "details": "normalized to β-actin"}, "CDK2/cyclinA(h)": {"biological_target": "CDK2/cyclinA(h) (Homo sapiens, UniProt P24941)", "assay": "Eurofins kinase assay"}, "BRAF": {"biological_target": "BRAF (Homo sapiens, UniProt P15056)", "sequence (P15056 whole entry)": "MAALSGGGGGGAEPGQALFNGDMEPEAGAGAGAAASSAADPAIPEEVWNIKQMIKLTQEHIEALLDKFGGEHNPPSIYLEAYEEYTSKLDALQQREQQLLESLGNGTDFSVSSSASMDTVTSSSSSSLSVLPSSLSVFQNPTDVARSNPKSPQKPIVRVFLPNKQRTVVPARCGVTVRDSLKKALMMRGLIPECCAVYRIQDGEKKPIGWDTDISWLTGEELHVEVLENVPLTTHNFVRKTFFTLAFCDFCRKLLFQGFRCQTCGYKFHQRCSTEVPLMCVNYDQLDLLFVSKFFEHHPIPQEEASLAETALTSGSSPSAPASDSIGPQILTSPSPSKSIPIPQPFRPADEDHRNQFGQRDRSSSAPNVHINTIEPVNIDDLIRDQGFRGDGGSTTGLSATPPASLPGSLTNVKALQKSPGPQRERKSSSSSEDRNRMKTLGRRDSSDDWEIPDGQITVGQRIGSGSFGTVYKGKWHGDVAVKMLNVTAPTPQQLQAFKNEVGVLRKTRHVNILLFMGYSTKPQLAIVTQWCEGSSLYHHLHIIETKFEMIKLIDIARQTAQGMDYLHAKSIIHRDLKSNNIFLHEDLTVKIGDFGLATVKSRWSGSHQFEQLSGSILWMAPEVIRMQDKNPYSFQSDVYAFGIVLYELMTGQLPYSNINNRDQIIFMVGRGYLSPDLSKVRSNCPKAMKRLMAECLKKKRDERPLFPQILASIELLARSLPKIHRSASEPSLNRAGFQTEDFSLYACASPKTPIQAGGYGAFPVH", "assay": "Eurofins kinase assay"}, "CSK(h)": {"biological_target": "CSK(h) (Homo sapiens, UniProt P41240)", "assay": "Eurofins kinase assay"}, "EGFR(h)": {"biological_target": "EGFR(h) (Homo sapiens, UniProt P00533)", "sequence (P00533 25-1210)": "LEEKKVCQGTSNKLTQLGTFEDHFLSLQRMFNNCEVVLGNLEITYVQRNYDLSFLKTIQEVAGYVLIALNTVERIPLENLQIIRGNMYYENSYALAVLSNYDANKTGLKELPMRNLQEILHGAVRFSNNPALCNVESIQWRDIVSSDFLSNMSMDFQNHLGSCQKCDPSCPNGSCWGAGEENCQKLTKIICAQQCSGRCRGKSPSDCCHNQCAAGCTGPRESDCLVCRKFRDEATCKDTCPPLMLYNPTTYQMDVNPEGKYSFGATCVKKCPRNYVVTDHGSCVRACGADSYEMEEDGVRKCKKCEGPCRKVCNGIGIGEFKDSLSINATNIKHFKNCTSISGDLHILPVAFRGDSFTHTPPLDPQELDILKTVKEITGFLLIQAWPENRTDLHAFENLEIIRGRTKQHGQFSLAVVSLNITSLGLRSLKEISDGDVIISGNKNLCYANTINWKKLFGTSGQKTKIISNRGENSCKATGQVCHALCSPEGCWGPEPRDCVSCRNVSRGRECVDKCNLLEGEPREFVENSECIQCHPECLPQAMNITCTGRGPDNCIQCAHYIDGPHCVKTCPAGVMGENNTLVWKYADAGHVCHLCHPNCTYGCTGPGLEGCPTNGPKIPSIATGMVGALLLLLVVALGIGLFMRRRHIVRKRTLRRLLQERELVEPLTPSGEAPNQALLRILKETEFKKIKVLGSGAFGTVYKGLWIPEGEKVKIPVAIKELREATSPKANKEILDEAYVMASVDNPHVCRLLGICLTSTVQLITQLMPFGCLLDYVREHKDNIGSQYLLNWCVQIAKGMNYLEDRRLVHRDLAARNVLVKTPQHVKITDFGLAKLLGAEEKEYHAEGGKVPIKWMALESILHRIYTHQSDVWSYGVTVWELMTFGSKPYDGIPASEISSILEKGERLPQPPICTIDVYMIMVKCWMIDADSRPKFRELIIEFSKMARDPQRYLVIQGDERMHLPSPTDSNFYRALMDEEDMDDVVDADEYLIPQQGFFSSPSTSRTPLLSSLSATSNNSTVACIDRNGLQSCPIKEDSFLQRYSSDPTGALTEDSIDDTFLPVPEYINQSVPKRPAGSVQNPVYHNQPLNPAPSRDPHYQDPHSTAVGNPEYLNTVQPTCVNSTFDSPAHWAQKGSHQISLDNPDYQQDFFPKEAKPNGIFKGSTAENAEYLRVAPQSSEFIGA", "assay": "Eurofins kinase assay"}, "Rsk1(h)": {"biological_target": "Rsk1(h) (Homo sapiens, UniProt Q15418)", "sequence (Q15418 whole entry)": "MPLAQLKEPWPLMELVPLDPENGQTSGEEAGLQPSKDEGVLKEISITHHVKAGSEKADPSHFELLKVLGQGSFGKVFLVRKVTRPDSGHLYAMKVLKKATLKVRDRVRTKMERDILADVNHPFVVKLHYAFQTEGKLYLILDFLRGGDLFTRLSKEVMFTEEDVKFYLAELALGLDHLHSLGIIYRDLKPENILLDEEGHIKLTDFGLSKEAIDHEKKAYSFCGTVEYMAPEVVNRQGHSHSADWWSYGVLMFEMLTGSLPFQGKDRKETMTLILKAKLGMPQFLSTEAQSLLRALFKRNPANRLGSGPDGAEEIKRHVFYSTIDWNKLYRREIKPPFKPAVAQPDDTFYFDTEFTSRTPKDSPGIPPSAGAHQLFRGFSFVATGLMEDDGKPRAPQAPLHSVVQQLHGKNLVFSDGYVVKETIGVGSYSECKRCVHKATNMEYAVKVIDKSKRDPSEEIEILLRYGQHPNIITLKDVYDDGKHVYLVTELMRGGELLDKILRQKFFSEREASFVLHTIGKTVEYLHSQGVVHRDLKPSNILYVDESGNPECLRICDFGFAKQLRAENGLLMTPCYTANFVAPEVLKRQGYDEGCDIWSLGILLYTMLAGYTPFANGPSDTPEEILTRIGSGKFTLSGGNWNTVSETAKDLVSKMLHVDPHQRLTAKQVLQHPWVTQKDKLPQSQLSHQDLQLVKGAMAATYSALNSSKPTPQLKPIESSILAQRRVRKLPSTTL", "assay": "Eurofins kinase assay"}, "CDK5/p35(h)": {"biological_target": "CDK5/p35(h) (Homo sapiens, UniProt Q00535)", "assay": "Eurofins kinase assay"}, "CHK2(h)": {"biological_target": "CHK2(h) (Homo sapiens, UniProt O96017)", "assay": "Eurofins kinase assay"}, "Rsk2(h)": {"biological_target": "Rsk2(h) (Homo sapiens, UniProt P51812)", "assay": "Eurofins kinase assay"}, "Rsk1(r)": {"biological_target": "Rsk1(r) (Rattus norvegicus, UniProt Q63531)", "assay": "Eurofins kinase assay"}}, "data": [{"compound": "O=C(Nc1cc(Nc2ncccc2-c2ncnc3[nH]cnc23)ccc1F)c1cc(C(F)(F)F)cc(C(F)(F)F)c1", "note": "[SJ-C1044, N-(5-(3-(9H-purin-6-yl)pyridin-2-ylamino)-2-fluorophenyl)-3,5-bis(trifluoromethyl)benzamide]", "values": [{"measurement": "inhibition at 10 µM", "setting": "Flt3(h)", "result": 3, "unit": "%"}, {"measurement": "inhibition at 10 µM", "setting": "[1]", "result": 37, "unit": "%"}, {"measurement": "inhibition at 10 µM", "setting": "CHK1(h)", "result": -2, "unit": "%"}, {"measurement": "inhibition at 10 µM", "setting": "PKCβII(h)", "result": 10, "unit": "%"}, {"measurement": "inhibition at 10 µM", "setting": "Bmx(h)", "result": -1, "unit": "%"}, {"measurement": "inhibition at 10 µM", "setting": "Syk(h)", "result": -26, "unit": "%"}, {"measurement": "inhibition at 10 µM", "setting": "ATR/ATRIP(h)", "result": 8, "unit": "%"}, {"measurement": "inhibition at 10 µM", "setting": "NEK2(h)", "result": -4, "unit": "%"}, {"measurement": "inhibition at 10 µM", "setting": "ATM(h)", "result": 12, "unit": "%"}, {"measurement": "inhibition at 10 µM", "setting": "Fyn(h)", "result": 27, "unit": "%"}, {"measurement": "inhibition at 10 µM", "setting": "PKCμ(h)", "result": -3, "unit": "%"}, {"measurement": "TGI", "setting": "[2]; 20 mg/kg po QD", "result": 72, "unit": "%"}, {"measurement": "TGI", "setting": "[2]; 40 mg/kg po QD", "result": 87, "unit": "%"}, {"measurement": "TGI", "setting": "[2]; 80 mg/kg po QD", "result": 107, "unit": "%"}, {"measurement": "TGI", "setting": "[3]; 20 mg/kg po QD", "result": 50, "unit": "%"}, {"measurement": "TGI", "setting": "[3]; 40 mg/kg po QD", "result": 63, "unit": "%"}, {"measurement": "TGI", "setting": "[3]; 80 mg/kg po QD", "result": 66, "unit": "%"}, {"measurement": "TGI", "setting": "[4]; 20 mg/kg po QD", "result": 58, "unit": "%"}, {"measurement": "TGI", "setting": "[4]; 40 mg/kg po QD", "result": 94, "unit": "%"}, {"measurement": "TGI", "setting": "[4]; 80 mg/kg po QD", "result": 117, "unit": "%"}, {"measurement": "inhibition at 10 µM", "setting": "CDK2/cyclinE(h)", "result": 2, "unit": "%"}, {"measurement": "inhibition at 10 µM", "setting": "PKBβ(h)", "result": 1, "unit": "%"}, {"measurement": "inhibition at 10 µM", "setting": "PRK2(h)", "result": -2, "unit": "%"}, {"measurement": "inhibition at 10 µM", "setting": "PKCε(h)", "result": -5, "unit": "%"}, {"measurement": "2-week repeated oral toxicity", "setting": "[5]", "result": "no indications of toxicity"}, {"measurement": "inhibition at 10 µM", "setting": "PAK2(h)", "result": -1, "unit": "%"}, {"measurement": "IL-10 protein expression", "setting": "IL-10", "result": 33, "unit": "% CTL"}, {"measurement": "inhibition at 10 µM", "setting": "CDK2/cyclinA(h)", "result": -8, "unit": "%"}, {"measurement": "inhibition at 10 µM", "setting": "BRAF", "result": 68, "unit": "%"}, {"measurement": "inhibition at 10 µM", "setting": "CSK(h)", "result": 3, "unit": "%"}, {"measurement": "inhibition at 10 µM", "setting": "EGFR(h)", "result": -4, "unit": "%"}, {"measurement": "inhibition at 10 µM", "setting": "Rsk1(h)", "result": 0, "unit": "%"}, {"measurement": "inhibition at 10 µM", "setting": "CDK5/p35(h)", "result": -19, "unit": "%"}, {"measurement": "inhibition at 10 µM", "setting": "CHK2(h)", "result": 0, "unit": "%"}, {"measurement": "inhibition at 10 µM", "setting": "Rsk2(h)", "result": -4, "unit": "%"}, {"measurement": "inhibition at 10 µM", "setting": "Rsk1(r)", "result": -12, "unit": "%"}]}]}
